Reference: US8889712B2, “IAP antagonists” (Bristol-Myers Squibb Company, priority 2012, dated 2014)
Where two headings read alike, the source gives them in different places.

What was measured:
XIAP BIR3 = target: T1, XIAP BIR3 (Homo sapiens, UniProt P98170); test: XIAP-BIR3/SMAC Homogeneous Time Resolved Fluorescence (HTRF) Assay; format: binding
T1 construct: His-BIR3 (241-356, XIAP)
Procedure, shortened: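 Competition HTRF between XIAP-BIR3 and SMAC; reaction 60 min at room temperature, then anti-6×His-terbium Fab detection for a further 30 min.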

XIAP BIR2-3 = target: T2, XIAP BIR2-3 (Homo sapiens, UniProt P98170, C202A/C213G); test: XIAP-BIR2-3 dimeric SMAC Peptide Homogeneous Time Resolved Fluorescence (HTRF) Assay; format: binding
T2 construct: His-BIR2-3 (125-356, C202A/C213G, XIAP)
T2 sequence (P98170 125-356 C202A/C213G): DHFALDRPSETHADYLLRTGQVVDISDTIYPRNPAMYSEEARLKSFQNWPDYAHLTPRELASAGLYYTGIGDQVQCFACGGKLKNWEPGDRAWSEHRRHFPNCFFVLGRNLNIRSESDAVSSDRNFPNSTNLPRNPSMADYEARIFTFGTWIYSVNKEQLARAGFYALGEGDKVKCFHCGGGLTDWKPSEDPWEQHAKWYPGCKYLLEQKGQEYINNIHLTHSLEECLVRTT
Experimental: B. […] Assays were performed in black, flat-bottom, 384-well plates. […] Compounds were dissolved at 3 mM in dimethylsulfoxide (DMSO) and evaluated at eleven serially diluted concentrations. IC50 and Ki values were derived by non-linear regression analysis.

[1] = 1 nM N-His-BIR3 (241-356, XIAP), 5 nM fluorescein labeled SMAC peptide, HTRF signal, read-out: XIAP BIR3 IC50
[2] = 0.5 nM N-His-BIR2-3 (125-356, C202A/C213G, XIAP), 20 nM fluorescein labeled dimeric SMAC peptide, HTRF signal, read-out: XIAP BIR2-3 IC50

T1 sequence (P98170 241-356): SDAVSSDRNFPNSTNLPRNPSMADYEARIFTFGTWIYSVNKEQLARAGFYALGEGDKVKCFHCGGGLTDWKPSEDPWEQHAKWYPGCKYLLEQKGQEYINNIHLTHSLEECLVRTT

| Structure (SMILES) | IC50 (XIAP BIR3; [1]) | IC50 (XIAP BIR2-3; [2]) | IC50 (XIAP BIR3) | IC50 (XIAP BIR2-3) |
| --- | --- | --- | --- | --- |
| CN[C@@H](C)C(=O)N[C@H](C(=O)N1C[C@@H](c2ccc3c(c2)CN(C(=O)[C@@H](NC(=O)[C@H](C)NC)C(C)(C)C)[C@H](C(=O)N[C@@H]2CCCc4ccccc42)C3)C[C@H]1C(=O)N[C@@H](Cc1ccccc1)C(=O)Nc1ccc(-n2cncn2)cc1)C(C)(C)C [Example 65, (S)-7-((3R,5S)-5-(((S)-1-((4-(1H-1,2,4-Triazol-1-yl)phenyl)amino)-1-oxo-3-phenylpropan-2-yl)carbamoyl)-1-((S)-3,3-dimethyl-2-((S)-2-(methylamino)propanamido)butanoyl)pyrrolidin-3-yl)-2-((S)-3,3-dimethyl-2-((S)-2-(methylamino)propanamido)butanoyl)-N-((R)-1,2,3,4-tetrahydronaphthalen-1-yl)-1,2,3,4-tetrahydroisoquinoline-3-carboxamide] | 5.4 nM | 1.6 nM |  |  |
| CN[C@@H](C)C(=O)N[C@H](C(=O)N1C[C@@H](c2ccc3c(c2)CN(C(=O)[C@@H](NC(=O)[C@H](C)NC)C(C)(C)C)[C@H](C(=O)N[C@@H]2CCCc4ccccc42)C3)C[C@H]1C(=O)N[C@@H](Cc1ccccc1)C(=O)NCCc1ccccc1)C(C)(C)C [Example 66, (S)-2-((S)-3,3-Dimethyl-2-((S)-2-(methylamino)propanamido)butanoyl)-7-((3R,5S)-1-((S)-3,3-dimethyl-2-((S)-2-(methylamino)propanamido)butanoyl)-5-(((S)-1-oxo-1-(phenethylamino)-3-phenylpropan-2-yl)carbamoyl)pyrrolidin-3-yl)-N-((R)-1,2,3,4-tetrahydronaphthalen-1-yl)-1,2,3,4-tetrahydroisoquinoline-3-carboxamide] |  |  | 13.3 nM | 3.1 nM |
| CN[C@@H](C)C(=O)N[C@H](C(=O)N1C[C@@H](c2ccc3c(c2)CN(C(=O)[C@@H](NC(=O)[C@H](C)NC)C(C)(C)C)[C@H](C(=O)N[C@@H]2CCCc4ccccc42)C3)C[C@H]1C(=O)N[C@@H](Cc1ccccc1)C(=O)Nc1ccccc1)C(C)(C)C [Example 68, (S)-2-((S)-3,3-Dimethyl-2-((S)-2-(methylamino)propanamido)butanoyl)-7-((3R,5S)-1-((S)-3,3-dimethyl-2-((S)-2-(methylamino)propanamido)butanoyl)-5-(((S)-1-oxo-3-phenyl-1-(phenylamino)propan-2-yl)carbamoyl)pyrrolidin-3-yl)-N-((R)-1,2,3,4-tetrahydronaphthalen-1-yl)-1,2,3,4-tetrahydroisoquinoline-3-carboxamide] |  |  | 4.9 nM | 1.3 nM |
| CN[C@@H](C)C(=O)N[C@H](C(=O)N1C[C@@H](c2ccc3c(c2)CN(C(=O)[C@@H](NC(=O)[C@H](C)NC)C(C)(C)C)[C@H](C(=O)N[C@@H]2CCCc4ccccc42)C3)C[C@H]1C(=O)N[C@@H](Cc1ccccc1)C(=O)OC)C(C)(C)C [Example 76, (S)-Methyl 2-((2S,4R)-1-((S)-3,3-dimethyl-2-((S)-2-(methylamino)propanamido)butanoyl)-4-((S)-2-((S)-3,3-dimethyl-2-((S)-2-(methylamino)propanamido)butanoyl)-3-(((R)-1,2,3,4-tetrahydronaphthalen-1-yl)carbamoyl)-1,2,3,4-tetrahydroisoquinolin-7-yl)pyrrolidine-2-carboxamido)-3-phenylpropanoate] |  |  | 18.9 nM | 2.5 nM |
| CN[C@@H](C)C(=O)N[C@H](C(=O)N1C[C@@H](c2ccc3c(c2)CN(C(=O)[C@@H](NC(=O)[C@H](C)NC)C(C)(C)C)[C@H](C(=O)N[C@@H]2CCCc4ccccc42)C3)C[C@H]1C(=O)N[C@@H](Cc1ccccc1)c1nnc(C)o1)C(C)(C)C [Example 79, (S)-2-((S)-3,3-Dimethyl-2-((S)-2-(methylamino)propanamido)butanoyl)-7-((3R,5S)-1-((S)-3,3-dimethyl-2-((S)-2-(methylamino)propanamido)butanoyl)-5-(((S)-1-(5-methyl-1,3,4-oxadiazol-2-yl)-2-phenylethyl)carbamoyl)pyrrolidin-3-yl)-N—((R)-1,2,3,4-tetrahydronaphthalen-1-yl)-1,2,3,4-tetrahydroisoquinoline-3-carboxamide] | 16.7 nM | 3.4 nM |  |  |

Continued, in another order:

| IC50 (XIAP BIR3; [1]) | IC50 (XIAP BIR2-3; [2]) | Structure (SMILES) | IC50 (XIAP BIR3) | IC50 (XIAP BIR2-3) |
| --- | --- | --- | --- | --- |
| 25.6 nM | 3.8 nM | CN[C@@H](C)C(=O)N[C@H](C(=O)N1C[C@@H](c2ccc3c(c2)CN(C(=O)[C@@H](NC(=O)[C@H](C)NC)C(C)(C)C)[C@H](C(=O)N[C@@H]2CCCc4ccccc42)C3)C[C@H]1C(=O)N[C@@H](Cc1ccccc1)C(=O)NC1CC1)C(C)(C)C [Example 64, (S)-7-((3R,5S)-5-(((S)-1-(Cyclopropylamino)-1-oxo-3-phenylpropan-2-yl)carbamoyl)-1-((S)-3,3-dimethyl-2-((S)-2-(methylamino)propanamido)butanoyl)pyrrolidin-3-yl)-2-((S)-3,3-dimethyl-2-((S)-2-(methylamino)propanamido)butanoyl)-N-((R)-1,2,3,4-tetrahydronaphthalen-1-yl)-1,2,3,4-tetrahydroisoquinoline-3-carboxamide] |  |  |
| 9.3 nM | 2.1 nM | CN[C@@H](C)C(=O)N[C@H](C(=O)N1C[C@@H](c2ccc3c(c2)CN(C(=O)[C@@H](NC(=O)[C@H](C)NC)C(C)(C)C)[C@H](C(=O)N[C@@H]2CCCc4ccccc42)C3)C[C@H]1C(=O)N[C@@H](Cc1ccccc1)C(=O)NCc1nccs1)C(C)(C)C [Example 67, (S)-2-((S)-3,3-Dimethyl-2-((S)-2-(methylamino)propanamido)butanoyl)-7-((3R,5S)-1-((S)-3,3-dimethyl-2-((S)-2-(methylamino)propanamido)butanoyl)-5-(((S)-1-oxo-3-phenyl-1-((thiazol-2-ylmethyl)amino)propan-2-yl)carbamoyl)pyrrolidin-3-yl)-N-((R)-1,2,3,4-tetrahydronaphthalen-1-yl)-1,2,3,4-tetrahydroisoquinoline-3-carboxamide] |  |  |
| 8.6 nM | 1.5 nM | CN[C@@H](C)C(=O)N[C@H](C(=O)N1C[C@@H](c2ccc3c(c2)CN(C(=O)[C@@H](NC(=O)[C@H](C)NC)C(C)(C)C)[C@H](C(=O)N[C@@H]2CCCc4ccccc42)C3)C[C@H]1C(=O)N[C@@H](Cc1ccccc1)C(=O)NCCC(C)C)C(C)(C)C [Example 69, (S)-2-((S)-3,3-Dimethyl-2-((S)-2-(methylamino)propanamido)butanoyl)-7-((3R,5S)-1-((S)-3,3-dimethyl-2-((S)-2-(methylamino)propanamido)butanoyl)-5-(((S)-1-(isopentylamino)-1-oxo-3-phenylpropan-2-yl)carbamoyl)pyrrolidin-3-yl)-N-((R)-1,2,3,4-tetrahydronaphthalen-1-yl)-1,2,3,4-tetrahydroisoquinoline-3-carboxamide] |  |  |
| 14.5 nM | 3 nM | CN[C@@H](C)C(=O)N[C@H](C(=O)N1C[C@@H](c2ccc3c(c2)CN(C(=O)[C@@H](NC(=O)[C@H](C)NC)C(C)(C)C)[C@H](C(=O)N[C@@H]2CCCc4ccccc42)C3)C[C@H]1C(=O)N[C@H](COC)Cc1ccccc1)C(C)(C)C [Example 75, (S)-2-((S)-3,3-Dimethyl-2-((S)-2-(methylamino)propanamido)butanoyl)-7-((3R,5S)-1-((S)-3,3-dimethyl-2-((S)-2-(methylamino)propanamido)butanoyl)-5-(((S)-1-methoxy-3-phenylpropan-2-yl)carbamoyl)pyrrolidin-3-yl)-N-((R)-1,2,3,4-tetrahydronaphthalen-1-yl)-1,2,3,4-tetrahydroisoquinoline-3-carboxamide] |  |  |
| 1.7 nM | 0.8 nM | CN[C@@H](C)C(=O)N[C@H](C(=O)N1C[C@@H](c2ccc3c(c2)CN(C(=O)[C@@H](NC(=O)[C@H](C)NC)C(C)(C)C)[C@H](C(=O)N[C@@H]2CCCc4ccccc42)C3)C[C@H]1C(=O)N[C@@H](Cc1ccccc1)C(=O)O)C(C)(C)C [Example 77, (S)-2-((2S,4R)-1-((S)-3,3-Dimethyl-2-((S)-2-(methylamino)propanamido)butanoyl)-4-((S)-2-((S)-3,3-dimethyl-2-((S)-2-(methylamino)propanamido)butanoyl)-3-(((R)-1,2,3,4-tetrahydronaphthalen-1-yl)carbamoyl)-1,2,3,4-tetrahydroisoquinolin-7-yl)pyrrolidine-2-carboxamido)-3-phenylpropanoic acid] |  |  |
| 8.9 nM | 2.8 nM | CN[C@@H](C)C(=O)N[C@H](C(=O)N1C[C@@H](c2ccc3c(c2)CN(C(=O)[C@@H](NC(=O)[C@H](C)NC)C(C)(C)C)[C@H](C(=O)N[C@@H]2CCCc4ccccc42)C3)C[C@H]1C(=O)N[C@@H](Cc1ccccc1)c1nnn[nH]1)C(C)(C)C [Example 78, (S)-2-((S)-3,3-Dimethyl-2-((S)-2-(methylamino)propanamido)butanoyl)-7-((3R,5S)-1-((S)-3,3-dimethyl-2-((S)-2-(methylamino)propanamido)butanoyl)-5-(((S)-2-phenyl-1-(1H-tetrazol-5-yl)ethyl)carbamoyl)pyrrolidin-3-yl)-N—((R)-1,2,3,4-tetrahydronaphthalen-1-yl)-1,2,3,4-tetrahydroisoquinoline-3-carboxamide] |  |  |
| 7.3 nM | 2.6 nM | CN[C@@H](C)C(=O)N[C@H](C(=O)N1C[C@@H](c2ccc3c(c2)CN(C(=O)[C@@H](NC(=O)[C@H](C)NC)C(C)(C)C)[C@H](C(=O)N[C@@H]2CCCc4ccccc42)C3)C[C@H]1C(=O)N[C@@H](Cc1ccccc1)c1noc(C)n1)C(C)(C)C [Example 80, (S)-2-((S)-3,3-Dimethyl-2-((S)-2-(methylamino)propanamido)butanoyl)-7-((3R,5S)-1-((S)-3,3-dimethyl-2-((S)-2-(methylamino)propanamido)butanoyl)-5-(((S)-1-(5-methyl-1,2,4-oxadiazol-3-yl)-2-phenylethyl)carbamoyl)pyrrolidin-3-yl)-N—((R)-1,2,3,4-tetrahydronaphthalen-1-yl)-1,2,3,4-tetrahydroisoquinoline-3-carboxamide] |  |  |
